# Reference: patent US6737383B1, “Herbicidal oxadiazolidines” (priority 1999, dated 2004)
# Key:
# surinam grass = test: Test C postemergence surinam grass; format: in vivo, Brachiaria decumbens; settings: 0 to 100 scale, 0 no effect, 100 complete control
# Description: (§1) Compounds evaluated in this test were formulated in a non-phytotoxic solvent mixture which included a surfactant and applied to plants that were grown for various periods of time before treatment (postemergence application). A mixture of sandy loam soil and greenhouse potting mix in a 60:40 ratio was used for the postemergence test.
# (§2) Plantings of these crops and weed species were adjusted to produce plants of appropriate size for the postemergence test. All plant species were grown using normal greenhouse practices. Crop and weed species include arrowleaf sida (Sida rhombifolia), barnyardgrass (Echinochloa crus-galli), cocklebur (Xanthium strumarium), common ragweed (Ambrosia elatior), corn (Zea mays), cotton (Gossypium hirsutum), eastern black nightshade (Solanum ptycanthum), fall panicum (Panicum dichotomiflorum), field bindweed (Convolvulus arvensis), giant foxtail (Setaria faberii), hairy beggarticks (Bidens pilosa), ivyleaf morningglory (Ipomoea hederacea), johnsongrass (Sorghum halepense), ladysthumb smartweed (Polygonum persicaria), lambsquarters (Chenopodium album), large crabgrass (Digitaria sanguinalis), purple nutsedge (Cyperus rotundus), redroot pigweed (Amaranthus retroflexus), soybean (Glycine max), surinam grass (Brachiaria decumbens), velvetleaf (Abutilon theophrasti) and wild poinsettia (Euphorbia heterophylla).
# (§3) Treated plants and untreated controls were maintained in a greenhouse for approximately 14, to 21 days, after which all treated plants were compared to untreated controls and visually evaluated. Plant response ratings, summarized in Table C, were based upon a 0 to 100 scale where 0 was no effect and 100 was complete control. A dash response (−) means no test result.
# ladysthumb smartweed = test: Test C postemergence ladysthumb smartweed; format: in vivo, Polygonum persicaria; settings: 0 to 100 scale, 0 no effect, 100 complete control
# Description: as §1, §2, §3
# Amaranthus rudis (AMATA) = test: Test F preemergence, alone and in mixture with rimsulfuron, AMATA; format: in vivo; settings: 21 days after treatment, 0-100 scale
# Description: (§4) Abutilon theophrasti (ABUTH), Chenopodium album (CHEAL), Amaranthus rudis (AMATA), Setaria faberii (SETFA), Panicum dichotomiflorum (PANDI), and Digitaria sanguinalis (DIGSA) were grown from seed in pots of an artificial potting mixture in a greenhouse. Compounds of the present invention were applied at 70 and 105 g ai/ha preemergence. Rimsulfuron was applied at 8.8 and 17.5 g ai/ha. Mixtures of the compounds of the present invention and rimsulfuron were also applied.
# (§5) Following application, the plants were maintained by watering as needed. A fertilizer solution of Peter's 20-20-20 (10 pounds/5 gallons of water) plus Sprint 330, a Iron Chelate micronutrient, (113.5 grams/5 gallons of water) was injected into the water with an Anderson fertilizer injection system to provide approximately 219 ppm of nitrogen with each watering. Artificial lighting was used to supplement natural light to produce a 14 hour photoperiod and: an additional one hour light period was used between 1:00 am to 2:00 am for a night interruption. Greenhouse temperatures were targeted for 27° C. in the day and 21° C. at night. At 21 days after treatment, all plants were evaluated for injury as compared to control plants that were sprayed only with non-phytotoxic solvent.
# (§6) Colby's equation was used to calculate the expected additive herbicidal effect of the mixtures of Compound 21 and the mixture partners listed above. […]
# wild poinsettia = test: Test C postemergence wild poinsettia; format: in vivo, Euphorbia heterophylla; settings: 0 to 100 scale, 0 no effect, 100 complete control
# Outline: (§7)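 Postemergence spray; formulation = non-phytotoxic solvent + surfactant; soil 60:40 sandy loam:greenhouse potting mix; greenhouse, ~14–21 d; visual rating vs untreated, 0–100 (100 = complete control).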
# field bindweed = test: Test C postemergence field bindweed; format: in vivo, Convolvulus arvensis; settings: 0 to 100 scale, 0 no effect, 100 complete control
# Description: as §1, §2, §3
# corn = test: Test C postemergence corn; format: in vivo, Zea mays; settings: 0 to 100 scale, 0 no effect, 100 complete control
# Outline: as §7
# cotton = test: Test C postemergence cotton; format: in vivo, Gossypium hirsutum; settings: 0 to 100 scale, 0 no effect, 100 complete control
# Outline: as §7
# giant foxtail = test: Test C postemergence giant foxtail; format: in vivo, Setaria faberii; settings: 0 to 100 scale, 0 no effect, 100 complete control
# Description: as §1, §2, §3
# arrowleaf sida = test: Test C postemergence arrowleaf sida; format: in vivo, Sida rhombifolia; settings: 0 to 100 scale, 0 no effect, 100 complete control
# Outline: as §7
# redroot pigweed = test: Test C postemergence redroot pigweed; format: in vivo, Amaranthus retroflexus; settings: 0 to 100 scale, 0 no effect, 100 complete control
# Description: as §1, §2, §3
# large crabgrass = test: Test C postemergence large crabgrass; format: in vivo, Digitaria sanguinalis; settings: 0 to 100 scale, 0 no effect, 100 complete control
# Description: as §1, §2, §3
# ivyleaf morningglory = test: Test C postemergence ivyleaf morningglory; format: in vivo, Ipomoea hederacea; settings: 0 to 100 scale, 0 no effect, 100 complete control
# Description: as §1, §2, §3
# lambsquarters = test: Test C postemergence lambsquarters; format: in vivo, Chenopodium album; settings: 0 to 100 scale, 0 no effect, 100 complete control
# Description: as §1, §2, §3
# [1] = tested on: Abutilon theophrasti (ABUTH); test: Test F preemergence, alone and in mixture with rimsulfuron, ABUTH; format: in vivo; settings: 21 days after treatment, 0-100 scale
# Description: as §4, §5, §6
# [2] = Alone: Cmpd. rate 70, Rimsulfuron 0
# [3] = Alone: Cmpd. rate 105, Rimsulfuron 0
smiles,measurement,setting,value
CC(C)N(C(=O)n1oc(=O)n(C(C)C)c1=O)c1ccccc1 [Compound 113],"Plant response rating, Surinam grass",surinam grass; Rate 140 g/ha,0
same,"Plant response rating, Surinam grass",surinam grass; Rate 280 g/ha,40
same,"Plant response rating, Surinam grass",surinam grass; Rate 560 g/ha,90
same,"Plant response rating, Surinam grass",surinam grass; Rate 1120 g/ha,90
same,Plant response rating Ladysthumb,ladysthumb smartweed; Rate 140 g/ha,0
same,Plant response rating Ladysthumb,ladysthumb smartweed; Rate 280 g/ha,0
same,Plant response rating Ladysthumb,ladysthumb smartweed; Rate 560 g/ha,85
same,Plant response rating Ladysthumb,ladysthumb smartweed; Rate 1120 g/ha,85
same,AMATA Observed,Amaranthus rudis (AMATA); [2],35%
same,AMATA Observed,Amaranthus rudis (AMATA); [3],25%
same,Plant response rating Wild poinsettia,wild poinsettia; Rate 140 g/ha,10
same,Plant response rating Wild poinsettia,wild poinsettia; Rate 280 g/ha,50
same,Plant response rating Wild poinsettia,wild poinsettia; Rate 560 g/ha,80
same,Plant response rating Wild poinsettia,wild poinsettia; Rate 1120 g/ha,95
same,Plant response rating Field bindweed,field bindweed; Rate 140 g/ha,0
same,Plant response rating Field bindweed,field bindweed; Rate 280 g/ha,0
same,Plant response rating Field bindweed,field bindweed; Rate 560 g/ha,50
same,Plant response rating Field bindweed,field bindweed; Rate 1120 g/ha,50
same,"Plant response rating, Corn",corn; Rate 140 g/ha,0
same,"Plant response rating, Corn",corn; Rate 280 g/ha,40
same,"Plant response rating, Corn",corn; Rate 560 g/ha,45
same,"Plant response rating, Corn",corn; Rate 1120 g/ha,60
same,Plant response rating Cotton,cotton; Rate 140 g/ha,10
same,Plant response rating Cotton,cotton; Rate 280 g/ha,15
same,Plant response rating Cotton,cotton; Rate 560 g/ha,50
same,Plant response rating Cotton,cotton; Rate 1120 g/ha,80
same,"Plant response rating, Giant foxtail",giant foxtail; Rate 140 g/ha,20
same,"Plant response rating, Giant foxtail",giant foxtail; Rate 280 g/ha,70
same,"Plant response rating, Giant foxtail",giant foxtail; Rate 560 g/ha,80
same,"Plant response rating, Giant foxtail",giant foxtail; Rate 1120 g/ha,80
same,Plant response rating Arrowleaf sida,arrowleaf sida; Rate 140 g/ha,30
same,Plant response rating Arrowleaf sida,arrowleaf sida; Rate 280 g/ha,40
same,Plant response rating Arrowleaf sida,arrowleaf sida; Rate 560 g/ha,70
same,Plant response rating Arrowleaf sida,arrowleaf sida; Rate 1120 g/ha,95
same,"Plant response rating, Redroot pigweed",redroot pigweed; Rate 140 g/ha,0
same,"Plant response rating, Redroot pigweed",redroot pigweed; Rate 280 g/ha,0
same,"Plant response rating, Redroot pigweed",redroot pigweed; Rate 560 g/ha,0
same,"Plant response rating, Redroot pigweed",redroot pigweed; Rate 1120 g/ha,90
same,"Plant response rating, Large crabgrass",large crabgrass; Rate 140 g/ha,0
same,"Plant response rating, Large crabgrass",large crabgrass; Rate 280 g/ha,85
same,"Plant response rating, Large crabgrass",large crabgrass; Rate 560 g/ha,95
same,"Plant response rating, Large crabgrass",large crabgrass; Rate 1120 g/ha,95
same,Plant response rating I. morningglory,ivyleaf morningglory; Rate 140 g/ha,10
same,Plant response rating I. morningglory,ivyleaf morningglory; Rate 280 g/ha,50
same,Plant response rating I. morningglory,ivyleaf morningglory; Rate 560 g/ha,50
same,Plant response rating I. morningglory,ivyleaf morningglory; Rate 1120 g/ha,50
same,Plant response rating Lambsquarters,lambsquarters; Rate 140 g/ha,0
same,Plant response rating Lambsquarters,lambsquarters; Rate 560 g/ha,20
same,Plant response rating Lambsquarters,lambsquarters; Rate 1120 g/ha,50
same,ABUTH Observed,[1]; [2],45%
same,ABUTH Observed,[1]; [3],65%
